Columns and labels:
Type in all cases: biochemical
human DPP IV = molecular target: T1, human DPP IV (Homo sapiens, UniProt P27487); experiment: DPP IV activity screening (Ala-Pro-AMC fluorescence)
T1 construct: extracellular fragment of protease DPP IV (aa29-766); made in house; host or cells: baculovirus expression system Bac-to-Bac
How it was run: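 DPP IV activity is taken as the linear rate of fluorescence change at 460 nm. Samples are dissolved in DMSO and screened at a single concentration (e.g. 20 μg/mL). Dose-response data are fit to a variable-slope sigmoidal model with bottom and top fixed at 0 and 100.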

[1] = molecular target: dipeptidyl peptidase 7 (DPP 7) (Homo sapiens, UniProt Q9UHL4); experiment: DPP 7 activity screening; details: N.I. = No Inhibition
How it was run: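 Sample dissolved in DMSO, final DMSO kept at a level not affecting activity; tested at a single concentration from preliminary screening (e.g. 20 μg/mL). Dose-response data fitted to sigmoidal variable-slope model with bottom and top fixed at 0 and 100.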

human DPP 8 = molecular target: T2, human DPP 8 (Homo sapiens, UniProt Q6V1X1); experiment: DPP 8 activity screening (Ala-Pro-AMC fluorescence); details: N.I. = No Inhibition
T2 construct: made in house; host or cells: insect cells, baculovirus Bac-to-Bac
How it was run: (§1)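 Insect-cell baculovirus-expressed human enzymes hydrolyse Ala-Pro-AMC; AMC release monitored kinetically as fluorescence rate (ex 355/em 460 nm). Primary screen at a single concentration (e.g. 20 μg/mL); dose–response fitted to variable-slope sigmoid with bottom/top fixed at 0 and 100.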

Human DPP 9 = molecular target: T3, Human DPP 9 (Homo sapiens, UniProt Q86TI2); experiment: DPP 9 activity screening (Ala-Pro-AMC fluorescence); details: N.I. = No Inhibition
T3 construct: made in house; host or cells: insect cells, baculovirus Bac-to-Bac
How it was run: as §1

FAP = molecular target: T4, FAP (Homo sapiens, UniProt Q12884); experiment: FAP inhibition (Table 1); details: N.I. = No Inhibition
T4 sequence (Q12884 1-760): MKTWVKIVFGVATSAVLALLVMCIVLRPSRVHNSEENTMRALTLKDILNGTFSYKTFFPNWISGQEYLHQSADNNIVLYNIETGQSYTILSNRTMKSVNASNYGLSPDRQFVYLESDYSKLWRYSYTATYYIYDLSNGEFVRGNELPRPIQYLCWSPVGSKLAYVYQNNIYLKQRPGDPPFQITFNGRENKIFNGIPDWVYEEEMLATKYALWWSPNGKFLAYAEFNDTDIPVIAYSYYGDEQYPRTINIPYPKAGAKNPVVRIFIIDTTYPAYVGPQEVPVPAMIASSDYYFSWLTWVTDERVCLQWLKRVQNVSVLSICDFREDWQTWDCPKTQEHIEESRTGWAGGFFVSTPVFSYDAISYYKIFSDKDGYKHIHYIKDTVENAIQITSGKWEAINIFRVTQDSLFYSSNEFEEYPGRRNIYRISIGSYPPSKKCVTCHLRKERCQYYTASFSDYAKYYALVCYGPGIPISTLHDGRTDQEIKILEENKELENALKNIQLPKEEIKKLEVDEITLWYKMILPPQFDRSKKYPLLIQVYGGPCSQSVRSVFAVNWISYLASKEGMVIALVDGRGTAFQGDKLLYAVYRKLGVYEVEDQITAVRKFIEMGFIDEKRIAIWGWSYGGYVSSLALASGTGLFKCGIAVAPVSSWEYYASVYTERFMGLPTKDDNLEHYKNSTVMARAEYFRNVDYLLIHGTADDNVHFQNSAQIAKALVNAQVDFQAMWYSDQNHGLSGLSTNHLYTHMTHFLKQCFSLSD

T1 sequence (P27487 29-766): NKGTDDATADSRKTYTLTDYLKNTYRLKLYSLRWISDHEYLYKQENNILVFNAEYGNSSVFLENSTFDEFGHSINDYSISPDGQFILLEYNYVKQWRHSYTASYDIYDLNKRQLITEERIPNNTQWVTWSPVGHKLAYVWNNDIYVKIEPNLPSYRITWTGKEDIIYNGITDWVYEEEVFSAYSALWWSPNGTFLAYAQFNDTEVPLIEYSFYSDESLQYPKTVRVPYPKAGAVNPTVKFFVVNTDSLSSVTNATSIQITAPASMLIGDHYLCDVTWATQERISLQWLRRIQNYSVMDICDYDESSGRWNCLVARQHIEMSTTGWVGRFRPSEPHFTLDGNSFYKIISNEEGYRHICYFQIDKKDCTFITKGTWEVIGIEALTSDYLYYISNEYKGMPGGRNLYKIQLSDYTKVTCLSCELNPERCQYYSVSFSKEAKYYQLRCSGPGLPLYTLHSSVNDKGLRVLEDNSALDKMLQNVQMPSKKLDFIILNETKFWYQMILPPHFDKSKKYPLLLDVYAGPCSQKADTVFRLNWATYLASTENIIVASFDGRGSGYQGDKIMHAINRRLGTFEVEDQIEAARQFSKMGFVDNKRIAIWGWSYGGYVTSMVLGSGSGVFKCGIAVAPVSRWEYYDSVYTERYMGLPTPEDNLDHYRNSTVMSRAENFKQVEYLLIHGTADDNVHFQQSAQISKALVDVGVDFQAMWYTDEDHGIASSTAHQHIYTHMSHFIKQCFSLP
T3 sequence (Q86TI2 whole entry): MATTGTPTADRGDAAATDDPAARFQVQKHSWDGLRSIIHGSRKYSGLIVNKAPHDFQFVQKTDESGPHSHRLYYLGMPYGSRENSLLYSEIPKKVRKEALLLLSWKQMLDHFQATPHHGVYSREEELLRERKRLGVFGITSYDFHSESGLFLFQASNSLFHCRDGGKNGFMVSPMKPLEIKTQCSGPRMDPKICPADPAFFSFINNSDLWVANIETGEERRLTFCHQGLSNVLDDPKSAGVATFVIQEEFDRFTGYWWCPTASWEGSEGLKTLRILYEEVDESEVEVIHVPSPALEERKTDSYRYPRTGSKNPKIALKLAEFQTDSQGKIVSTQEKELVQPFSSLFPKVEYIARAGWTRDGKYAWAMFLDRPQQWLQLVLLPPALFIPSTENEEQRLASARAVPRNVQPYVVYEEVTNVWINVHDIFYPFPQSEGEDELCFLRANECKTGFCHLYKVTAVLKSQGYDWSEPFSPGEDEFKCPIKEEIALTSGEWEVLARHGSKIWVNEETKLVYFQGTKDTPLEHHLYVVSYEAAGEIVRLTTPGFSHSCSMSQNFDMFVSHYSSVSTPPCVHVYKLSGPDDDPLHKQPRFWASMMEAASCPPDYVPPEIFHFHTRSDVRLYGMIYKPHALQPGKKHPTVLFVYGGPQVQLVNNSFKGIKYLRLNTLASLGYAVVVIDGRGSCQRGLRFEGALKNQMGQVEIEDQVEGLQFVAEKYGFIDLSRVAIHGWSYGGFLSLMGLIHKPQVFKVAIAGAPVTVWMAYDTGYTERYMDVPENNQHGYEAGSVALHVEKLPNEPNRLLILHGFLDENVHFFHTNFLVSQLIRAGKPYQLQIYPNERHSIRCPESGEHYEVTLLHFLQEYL
T2 sequence (Q6V1X1 whole entry): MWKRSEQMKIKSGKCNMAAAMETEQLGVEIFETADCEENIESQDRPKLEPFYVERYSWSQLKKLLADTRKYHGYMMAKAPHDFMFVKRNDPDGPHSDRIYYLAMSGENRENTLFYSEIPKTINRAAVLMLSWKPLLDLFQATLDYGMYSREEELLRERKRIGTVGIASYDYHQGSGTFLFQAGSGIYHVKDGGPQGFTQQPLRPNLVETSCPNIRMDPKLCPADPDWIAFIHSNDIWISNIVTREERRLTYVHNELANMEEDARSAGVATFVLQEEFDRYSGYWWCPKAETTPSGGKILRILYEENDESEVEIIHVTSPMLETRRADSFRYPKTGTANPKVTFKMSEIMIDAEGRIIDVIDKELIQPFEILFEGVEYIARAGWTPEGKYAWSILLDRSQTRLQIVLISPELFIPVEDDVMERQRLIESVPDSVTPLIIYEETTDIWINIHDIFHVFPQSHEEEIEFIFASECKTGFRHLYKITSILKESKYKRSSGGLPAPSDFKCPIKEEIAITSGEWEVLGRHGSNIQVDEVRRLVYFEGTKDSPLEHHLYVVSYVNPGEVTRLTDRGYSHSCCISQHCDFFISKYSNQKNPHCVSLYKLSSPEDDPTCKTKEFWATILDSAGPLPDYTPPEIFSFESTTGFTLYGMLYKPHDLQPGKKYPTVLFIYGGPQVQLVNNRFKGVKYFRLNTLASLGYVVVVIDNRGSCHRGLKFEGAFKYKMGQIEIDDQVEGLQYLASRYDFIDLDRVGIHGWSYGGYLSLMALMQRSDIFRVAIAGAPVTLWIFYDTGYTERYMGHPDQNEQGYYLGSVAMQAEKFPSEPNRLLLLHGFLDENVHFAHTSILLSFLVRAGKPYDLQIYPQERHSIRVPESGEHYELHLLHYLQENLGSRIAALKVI

Question: Which IC50 (human DPP IV) does the source give for N#Cc1ccccc1Cn1c(N2CCC[C@@H](N)C2)nc2c(C(=O)NC3CCCCC3)csc2c1=O [Compound 80, (R)-2-(3-aminopiperidin-1-yl)-3-(2-cyanobenzyl)-N-cyclohexyl-4-oxo-3,4-dihydrothieno[3,2-d]pyrimidine-7-carboxamide] here?
Answer: 0.026 µM

Question: And the “DPP 7 IC50” value [1]?
Answer: N.I.

Question: What about the IC50 (human DPP 8) of the same compound?
Answer: 25.7 µM

Question: What about the IC50 (Human DPP 9) of the same compound?
Answer: 115 µM

Question: What about the IC50 (FAP) of the same compound?
Answer: 28.7 µM

Question: How did the IC50 (human DPP IV) turn out when CCNC(=O)c1csc2c(=O)n(Cc3ccccc3C#N)c(N3CCC[C@@H](N)C3)nc12 [Compound 71, (R)-2-(3-aminopiperidin-1-yl)-3-(2-cyanobenzyl)-N-ethyl-4-oxo-3,4-dihydrothieno[3,2-d]pyrimidine-7-carboxamide] was run?
Answer: 0.0143 µM

Question: And the IC50 [1]?
Answer: 144 µM

Question: And the IC50 (human DPP 8)?
Answer: 26.8 µM

Question: And the IC50 (Human DPP 9)?
Answer: 238 µM

Question: And the IC50 (FAP)?
Answer: 52.1 µM

Question: N#Cc1ccccc1Cn1c(N2CCC[C@@H](N)C2)nc2cc(C(=O)NCC3CC3)sc2c1=O [Compound 106, (R)-2-(3-aminopiperidin-1-yl)-3-(2-cyanobenzyl)-N-(cyclopropylmethyl)-4-oxo-3,4-dihydrothieno[3,2-d]pyrimidine-6-carboxamide] was tested. Which IC50 (human DPP IV) did it give?
Answer: 0.0183 µM

Question: What about the “DPP 7 IC50” value [1] of the same compound?
Answer: N.I.

Question: And the IC50 (human DPP 8)?
Answer: 76.2 µM

Question: What about the IC50 (Human DPP 9) of the same compound?
Answer: 127 µM

Question: What about the IC50 (FAP) of the same compound?
Answer: 117 µM

Question: Which results are given for N#Cc1ccccc1Cn1c(N2CCC[C@@H](N)C2)nc2c(C(=O)NCC3COC3)csc2c1=O [Compound 82, (R)-2-(3-aminopiperidin-1-yl)-3-(2-cyanobenzyl)-N-(oxetan-3-ylmethyl)-4-oxo-3,4-dihydrothieno[3,2-d]pyrimidine-7-carboxamide]?
Answer: IC50 (human DPP IV): 0.0659 µM; DPP 7 IC50 [1]: N.I.; IC50 (human DPP 8): 18.1 µM; DPP 9 IC50 (Human DPP 9): N.I.; IC50 (FAP): 16.5 µM

Question: How did the IC50 (human DPP IV) turn out when N#Cc1ccccc1Cn1c(N2CCC[C@@H](N)C2)nc2cc(COCc3ccccc3)sc2c1=O [Compound 94, (R)-2-((2-(3-aminopiperidin-1-yl)-6-((benzyloxy)methyl)-4-oxothieno-[3,2-d]pyrimidin-3(4H)-yl)methyl)-benzonitrile] was run?
Answer: 0.0104 µM

Question: What about the “DPP 7 IC50” value [1] of the same compound?
Answer: N.I.

Question: And the IC50 (human DPP 8)?
Answer: 34.2 µM

Question: And the IC50 (Human DPP 9)?
Answer: 55 µM

Question: What about the IC50 (FAP) of the same compound?
Answer: 96.8 µM

Question: What does the source list for CCCCNC(=O)c1cc2nc(N3CCC[C@@H](N)C3)n(Cc3ccccc3C#N)c(=O)c2s1 [Compound 117, (R)-2-(3-aminopiperidin-1-yl)-N-butyl-3-(2-cyanobenzyl)-4-oxo-3,4-dihydrothieno[3,2-d]pyrimidine-6-carboxamide]?
Answer: IC50 (human DPP IV): 0.016 µM; DPP 7 IC50 [1]: N.I.; IC50 (human DPP 8): 63.2 µM; IC50 (Human DPP 9): 78.5 µM; IC50 (FAP): 118 µM

Question: With N#Cc1ccccc1Cn1c(N2CCC[C@@H](N)C2)nc2c(N)csc2c1=O [Compound 84, (R)-2-((7-amino-2-(3-aminopiperidin-1-yl)-4-oxothieno[3,2-d]pyrimidin-3(4H)-yl)methyl)benzonitriIe] as the compound, how does the IC50 (human DPP IV) read?
Answer: 0.0242 µM

Question: What about the “DPP 7 IC50” value [1] of the same compound?
Answer: N.I.

Question: What about the IC50 (human DPP 8) of the same compound?
Answer: 62 µM

Question: What about the “DPP 9 IC50” value (Human DPP 9) of the same compound?
Answer: N.I.

Question: What about the IC50 (FAP) of the same compound?
Answer: 91.3 µM

Question: For N#Cc1ccccc1Cn1c(N2CCC[C@@H](N)C2)nc2cc(C(=O)N3CCCC3)sc2c1=O [Compound 107, (R)-2-((2-(3-aminopiperidin-1-yl)-4-oxo-6-(pyrrolidine-1-carbonyl)thieno-[3,2-d]pyrimidin-3(4H)-yl)methyl)-benzonitrile], which IC50 (human DPP IV) is on record?
Answer: 0.0241 µM

Question: What about the “DPP 7 IC50” value [1] of the same compound?
Answer: N.I.

Question: And the IC50 (human DPP 8)?
Answer: 39.7 µM

Question: And the IC50 (Human DPP 9)?
Answer: 122 µM

Question: What about the IC50 (FAP) of the same compound?
Answer: 98.6 µM

Question: With COC(=O)CNC(=O)c1cc2nc(N3CCC[C@@H](N)C3)n(Cc3ccccc3C#N)c(=O)c2s1 [Compound 99, (R)-methyl 2-(2-(3-aminopiperidin-1-yl)-3-(2-cyanobenzyl)-4-oxo-3,4-dihydrothieno[3,2-d]pyrimidine-6-carboxamido)acetate] as the compound, how does the IC50 (human DPP IV) read?
Answer: 0.0247 µM

Question: What about the “DPP 7 IC50” value [1] of the same compound?
Answer: N.I.

Question: And the IC50 (human DPP 8)?
Answer: 66 µM

Question: What about the IC50 (Human DPP 9) of the same compound?
Answer: 179 µM

Question: What about the IC50 (FAP) of the same compound?
Answer: 178 µM

Question: With CN(C)C(=O)c1csc2c(=O)n(Cc3ccccc3C#N)c(N3CCC[C@@H](N)C3)nc12 [Compound 63, (R)-2-(3-aminopiperidin-1-yl)-3-(2-cyanobenzyl)-N,N-dimethyl-4-oxo-3,4-dihydrothieno[3,2-d]pyrimidine-7-carboxamide] as the compound, how does the IC50 (human DPP IV) read?
Answer: 0.0275 µM

Question: And the “DPP 7 IC50” value [1]?
Answer: N.I.

Question: What about the IC50 (human DPP 8) of the same compound?
Answer: 47.9 µM

Question: What about the IC50 (Human DPP 9) of the same compound?
Answer: 189 µM

Question: What about the IC50 (FAP) of the same compound?
Answer: 170 µM

Question: N#Cc1ccccc1Cn1c(N2CCC[C@@H](N)C2)nc2cc(C(=O)NCc3cccc(C(F)(F)F)c3)sc2c1=O [Compound 120, (R)-2-(3-aminopiperidin-1-yl)-3-(2-cyanobenzyl)-4-oxo-N-(3-(trifluoromethyl)benzyl)-3,4-dihydrothieno[3,2-d]pyrimidine-6-carboxamide] was tested. Which IC50 (human DPP IV) did it give?
Answer: 0.0286 µM

Question: And the “DPP 7 IC50” value [1]?
Answer: N.I.

Question: And the IC50 (human DPP 8)?
Answer: 53.8 µM

Question: And the IC50 (Human DPP 9)?
Answer: 49.7 µM

Question: What about the IC50 (FAP) of the same compound?
Answer: 87.4 µM

Question: Which IC50 (human DPP IV) does the source give for N#Cc1ccccc1Cn1c(N2CCC[C@@H](N)C2)nc2c(C(=O)NCc3ccc(C(F)(F)F)cc3)csc2c1=O [Compound 68, (R)-2-(3-aminopiperidin-1-yl)-3-(2-cyanobenzyl)-4-oxo-N-(4-(trifluoromethyl)benzyl)-3,4-dihydrothieno[3,2-d]pyrimidine-7-carboxamide] here?
Answer: 0.023 µM

Question: And the IC50 [1]?
Answer: 145 µM

Question: And the IC50 (human DPP 8)?
Answer: 8.16 µM

Question: What about the IC50 (Human DPP 9) of the same compound?
Answer: 100 µM

Question: And the IC50 (FAP)?
Answer: 8.78 µM

Question: COC(=O)[C@@H](NC(=O)c1cc2nc(N3CCC[C@@H](N)C3)n(Cc3ccccc3C#N)c(=O)c2s1)C(C)C [Compound 100, (S)-methyl 2-(2-((R)-3-aminopiperidin-1-yl)-3-(2-cyanobenzyl)-4-oxo-3,4-dihydrothieno[3,2-d]pyrimidine-6-carboxamido)-3-methylbutanoate] was tested. Which IC50 (human DPP IV) did it give?
Answer: 0.0283 µM

Question: What about the “DPP 7 IC50” value [1] of the same compound?
Answer: N.I.

Question: And the IC50 (human DPP 8)?
Answer: 43.1 µM

Question: And the IC50 (Human DPP 9)?
Answer: 117 µM

Question: What about the IC50 (FAP) of the same compound?
Answer: 119 µM

Question: Which results are given for COC(=O)c1cc2nc(N3CCC[C@@H](N)C3)n(Cc3ccccc3C#N)c(=O)c2s1 [Compound 38, (R)-methyl 2-(3-aminopiperidin-1-yl)-3-(2-cyanobenzyl)-4-oxo-3,4-dihydrothieno[3,2-d]pyrimidine-6-carboxylate]?
Answer: IC50 (human DPP IV): 0.0115 µM; DPP 7 IC50 [1]: N.I.; DPP 8 IC50 (human DPP 8): N.I.; DPP 9 IC50 (Human DPP 9): N.I.; FAP IC50 (FAP): N.I.

Question: Which results are given for CCOC(=O)CNC(=O)c1csc2c(=O)n(Cc3ccccc3C#N)c(N3CCC[C@@H](N)C3)nc12 [Compound 58, (R)-ethyl 2-(2-(3-aminopiperidin-1-yl)-3-(2-cyanobenzyl)-4-oxo-3,4-dihydrothieno[3,2-d]pyrimidine-7-carboxamido)acetate]?
Answer: IC50 (human DPP IV): 0.00872 µM; DPP 7 IC50 [1]: N.I.; IC50 (human DPP 8): 14.3 µM; DPP 9 IC50 (Human DPP 9): N.I.; FAP IC50 (FAP): N.I.

Question: Which results are given for N#Cc1ccccc1Cn1c(N2CCC[C@@H](N)C2)nc2c(CO)csc2c1=O [Compound 43, (R)-2-((2-(3-aminopiperidin-1-yl)-7-(hydroxymethyl)-4-oxothieno[3,2-d]-pyrimidin-3(4H)-yl)methyl)benzonitrile]?
Answer: IC50 (human DPP IV): 0.0189 µM; DPP 7 IC50 [1]: N.I.; DPP 8 IC50 (human DPP 8): N.I.; DPP 9 IC50 (Human DPP 9): N.I.; FAP IC50 (FAP): N.I.

Question: For N#Cc1ccccc1Cn1c(N2CCC[C@@H](N)C2)nc2c(CN3CCOCC3)csc2c1=O [Compound 55, (R)-2-((2-(3-aminopiperidin-1-yl)-7-(morpholinomethyl)-4-oxothieno-[3,2-d]pyrimidin-3(4H)-yl)methyl)-benzonitrile], which IC50 (human DPP IV) is on record?
Answer: 0.0178 µM

Question: What about the “DPP 7 IC50” value [1] of the same compound?
Answer: N.I.

Question: And the “DPP 8 IC50” value (human DPP 8)?
Answer: N.I.

Question: And the “DPP 9 IC50” value (Human DPP 9)?
Answer: N.I.

Question: What about the “FAP IC50” value (FAP) of the same compound?
Answer: N.I.

Reference: patent US9045491B2, “Thienyl [3,2-D] pyrimidin-4-one compounds, preparation method, pharmaceutical compositions and use thereof” (SHANGHAI INSTITUTE OF MATERIA MEDICA, CHINESE ACADEMY OF …, priority 2011, dated 2015)
